Measurements as given in ChEMBL document CHEMBL6134905, “Double Swords in One: Novel Selective PI3K/110β PROTAC Degraders for the Treatment of Multidrug-Resistant Cancer by Activating ERS and Inhibiting P-gp” (J Med Chem, 2025).
Calls of active or inactive are those of the source. No cut-off for these calls is given here.

Columns and labels:
[1] = tested on: MCF7/ADM; test: Induction of apoptosis in human MCF7/ADM cells assessed as increase in cleaved caspase-8 expression at 12.5 uM incubated for 24 hrs by Western blot analysis; type: functional, cell-based
[2] = molecular target: T1, von Hippel-Lindau disease tumor suppressor/Phosphatidylinositol 4,5-bisphosphate 3-kinase catalytic subunit beta isoform (Homo sapiens, UniProt P42338+P40337); test: PROTAC activity at PI3K-p110beta/VHL in human MCF7/ADM cells assessed as reduction in PI3K-p110beta level incubated for 24 hrs by Western blot analysis; type: cell-based; settings: dose 0.04-50 µM
Target sequence in this assay (P40337 whole entry, looked up, canonical isoform): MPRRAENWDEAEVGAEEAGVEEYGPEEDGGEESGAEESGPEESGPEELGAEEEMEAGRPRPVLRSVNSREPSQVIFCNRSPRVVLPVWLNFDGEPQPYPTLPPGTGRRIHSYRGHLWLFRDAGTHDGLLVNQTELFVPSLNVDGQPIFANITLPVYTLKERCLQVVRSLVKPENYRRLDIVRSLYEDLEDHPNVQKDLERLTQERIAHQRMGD
Target sequence in this assay (P42338 whole entry, looked up, canonical isoform): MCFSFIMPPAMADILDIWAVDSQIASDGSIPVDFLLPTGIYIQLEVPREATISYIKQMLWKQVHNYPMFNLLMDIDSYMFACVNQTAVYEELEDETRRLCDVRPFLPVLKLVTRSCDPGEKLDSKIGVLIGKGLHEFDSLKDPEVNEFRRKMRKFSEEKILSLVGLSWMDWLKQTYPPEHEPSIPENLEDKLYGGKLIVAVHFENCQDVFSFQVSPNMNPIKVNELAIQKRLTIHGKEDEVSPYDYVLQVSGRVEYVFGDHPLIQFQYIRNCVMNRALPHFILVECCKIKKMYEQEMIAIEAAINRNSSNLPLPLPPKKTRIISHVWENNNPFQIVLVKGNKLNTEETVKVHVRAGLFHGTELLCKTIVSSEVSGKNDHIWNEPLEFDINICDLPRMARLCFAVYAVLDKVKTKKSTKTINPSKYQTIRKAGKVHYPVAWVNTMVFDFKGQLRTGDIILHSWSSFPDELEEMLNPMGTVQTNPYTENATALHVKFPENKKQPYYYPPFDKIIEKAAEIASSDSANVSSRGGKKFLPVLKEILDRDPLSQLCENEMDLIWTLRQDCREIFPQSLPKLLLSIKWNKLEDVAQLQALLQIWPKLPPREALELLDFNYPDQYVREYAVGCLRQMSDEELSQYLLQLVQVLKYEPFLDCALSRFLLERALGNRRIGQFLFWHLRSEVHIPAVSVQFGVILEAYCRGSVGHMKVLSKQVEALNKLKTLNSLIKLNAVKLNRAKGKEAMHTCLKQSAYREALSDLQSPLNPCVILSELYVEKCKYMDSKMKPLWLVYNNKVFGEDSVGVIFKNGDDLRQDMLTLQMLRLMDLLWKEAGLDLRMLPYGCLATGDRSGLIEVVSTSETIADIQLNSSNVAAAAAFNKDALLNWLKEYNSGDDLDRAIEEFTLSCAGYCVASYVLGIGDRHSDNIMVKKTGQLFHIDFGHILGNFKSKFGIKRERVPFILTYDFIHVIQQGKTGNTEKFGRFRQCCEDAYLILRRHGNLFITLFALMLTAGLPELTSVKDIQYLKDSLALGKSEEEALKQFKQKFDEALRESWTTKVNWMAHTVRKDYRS

[3] = molecular target: T1, von Hippel-Lindau disease tumor suppressor/Phosphatidylinositol 4,5-bisphosphate 3-kinase catalytic subunit beta isoform; test: PROTAC activity at PI3K-p110beta/VHL in human A549/DDP cells assessed as induction of PI3K-p110beta degradation at 25 uM measured for 24 hrs in presence of TGX221 by Western blot analysis; type: cell-based
Target sequence in this assay (P40337 whole entry, looked up, canonical isoform): as the sequence (P40337 whole entry, looked up, canonical isoform) above
Target sequence in this assay (P42338 whole entry, looked up, canonical isoform): as the sequence (P42338 whole entry, looked up, canonical isoform) above

[4] = Induction of apoptosis in human MCF7/ADM cells at 6.25 uM incubated for 24 hrs by Annexin V-FITC/PI staining based flow cytometry analysis (reference value: 5.20%); type: functional
[5] = molecular target: T1, von Hippel-Lindau disease tumor suppressor/Phosphatidylinositol 4,5-bisphosphate 3-kinase catalytic subunit beta isoform; test: PROTAC activity at PI3K-p110beta/VHL in human MCF7/ADM cells assessed as reduction in PI3K-p110beta level at 25 uM measured for 24 hrs by Western blot analysis; type: cell-based
Target sequence in this assay (P40337 whole entry, looked up, canonical isoform): as the sequence (P40337 whole entry, looked up, canonical isoform) above
Target sequence in this assay (P42338 whole entry, looked up, canonical isoform): as the sequence (P42338 whole entry, looked up, canonical isoform) above

[6] = molecular target: ATP-dependent translocase ABCB1 (Homo sapiens, UniProt P08183); test: Inhibition of P-gp in human MCF7/ADM cells at 6.25 to 25 uM incubated for 24 hrs; type: cell-based; settings: dose 6.25-25 µM
Chain of ATP-dependent translocase ABCB1 (P08183 whole entry): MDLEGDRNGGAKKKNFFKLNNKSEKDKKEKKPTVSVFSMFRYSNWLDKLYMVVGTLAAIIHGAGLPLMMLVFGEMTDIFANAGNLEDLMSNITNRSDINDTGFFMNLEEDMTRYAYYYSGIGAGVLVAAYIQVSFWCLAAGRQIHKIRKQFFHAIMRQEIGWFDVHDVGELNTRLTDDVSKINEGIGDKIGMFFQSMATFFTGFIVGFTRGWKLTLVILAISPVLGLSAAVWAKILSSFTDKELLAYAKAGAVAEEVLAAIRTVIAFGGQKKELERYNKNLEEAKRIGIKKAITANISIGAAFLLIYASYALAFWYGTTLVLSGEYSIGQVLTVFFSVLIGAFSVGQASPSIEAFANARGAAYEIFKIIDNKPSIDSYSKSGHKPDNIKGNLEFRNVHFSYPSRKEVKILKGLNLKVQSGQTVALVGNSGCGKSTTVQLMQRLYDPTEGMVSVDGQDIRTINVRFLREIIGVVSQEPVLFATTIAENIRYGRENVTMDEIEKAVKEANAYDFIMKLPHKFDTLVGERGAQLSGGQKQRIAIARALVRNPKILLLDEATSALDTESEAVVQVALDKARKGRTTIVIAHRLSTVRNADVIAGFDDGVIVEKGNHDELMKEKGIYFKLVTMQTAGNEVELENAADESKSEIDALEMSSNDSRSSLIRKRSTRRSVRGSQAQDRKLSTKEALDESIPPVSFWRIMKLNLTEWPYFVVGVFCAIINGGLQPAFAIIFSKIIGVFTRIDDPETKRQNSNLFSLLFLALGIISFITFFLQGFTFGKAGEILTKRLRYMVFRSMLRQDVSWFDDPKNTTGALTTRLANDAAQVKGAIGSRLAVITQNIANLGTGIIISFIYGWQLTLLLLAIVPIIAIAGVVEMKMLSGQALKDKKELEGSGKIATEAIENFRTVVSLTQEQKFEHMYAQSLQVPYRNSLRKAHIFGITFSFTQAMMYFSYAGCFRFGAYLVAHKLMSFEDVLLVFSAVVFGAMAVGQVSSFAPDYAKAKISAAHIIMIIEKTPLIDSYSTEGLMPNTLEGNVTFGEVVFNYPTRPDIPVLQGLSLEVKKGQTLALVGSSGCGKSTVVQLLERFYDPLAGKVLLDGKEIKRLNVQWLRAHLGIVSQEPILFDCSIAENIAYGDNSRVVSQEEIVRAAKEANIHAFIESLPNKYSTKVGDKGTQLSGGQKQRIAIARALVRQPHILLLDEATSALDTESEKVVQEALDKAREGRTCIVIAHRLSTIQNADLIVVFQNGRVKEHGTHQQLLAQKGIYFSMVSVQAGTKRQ

[7] = tested on: MCF7/ADM; test: Antitumor activity against human MCF7/ADM cells xenografted in BALB/c mouse assessed as increase in pIRE1 expression in tumor at 50 mg/kg, ip by Western blot analysis; type: functional, organism-based
[8] = tested on: A549/CDDP; test: Induction of apoptosis in human A549/DDP cells assessed as decrease in bax expression at 12.5 uM incubated for 24 hrs by Western blot analysis; type: functional, cell-based
[9] = molecular target: T1, von Hippel-Lindau disease tumor suppressor/Phosphatidylinositol 4,5-bisphosphate 3-kinase catalytic subunit beta isoform; test: PROTAC activity at PI3K-p110beta/VHL in human MCF7/ADM cells assessed as reduction in PI3K-p110beta mRNA level at 25 uM measured for 24 hrs by qRT-PCR analysis; type: cell-based
Target sequence in this assay (P40337 whole entry, looked up, canonical isoform): as the sequence (P40337 whole entry, looked up, canonical isoform) above
Target sequence in this assay (P42338 whole entry, looked up, canonical isoform): as the sequence (P42338 whole entry, looked up, canonical isoform) above

[10] = Induction of apoptosis in human MCF7/ADM cells at 25 uM incubated for 24 hrs in presence of TUDCA by Annexin V-FITC/PI staining based flow cytometry analysis (reference value: 5.20%); type: functional
[11] = molecular target: T2, von Hippel-Lindau disease tumor suppressor/Phosphatidylinositol 4,5-bisphosphate 3-kinase catalytic subunit alpha isoform (Homo sapiens, UniProt P42336+P40337); test: PROTAC activity at PI3K-p110alpha/VHL in human A549/DDP cells assessed as reduction in PI3K-p110alpha level incubated for 24 hrs by Western blot analysis; type: cell-based; settings: dose 0.04-50 µM
T2 sequence (P40337 whole entry, looked up, canonical isoform): as the sequence (P40337 whole entry, looked up, canonical isoform) above
T2 sequence (P42336 whole entry, looked up, canonical isoform): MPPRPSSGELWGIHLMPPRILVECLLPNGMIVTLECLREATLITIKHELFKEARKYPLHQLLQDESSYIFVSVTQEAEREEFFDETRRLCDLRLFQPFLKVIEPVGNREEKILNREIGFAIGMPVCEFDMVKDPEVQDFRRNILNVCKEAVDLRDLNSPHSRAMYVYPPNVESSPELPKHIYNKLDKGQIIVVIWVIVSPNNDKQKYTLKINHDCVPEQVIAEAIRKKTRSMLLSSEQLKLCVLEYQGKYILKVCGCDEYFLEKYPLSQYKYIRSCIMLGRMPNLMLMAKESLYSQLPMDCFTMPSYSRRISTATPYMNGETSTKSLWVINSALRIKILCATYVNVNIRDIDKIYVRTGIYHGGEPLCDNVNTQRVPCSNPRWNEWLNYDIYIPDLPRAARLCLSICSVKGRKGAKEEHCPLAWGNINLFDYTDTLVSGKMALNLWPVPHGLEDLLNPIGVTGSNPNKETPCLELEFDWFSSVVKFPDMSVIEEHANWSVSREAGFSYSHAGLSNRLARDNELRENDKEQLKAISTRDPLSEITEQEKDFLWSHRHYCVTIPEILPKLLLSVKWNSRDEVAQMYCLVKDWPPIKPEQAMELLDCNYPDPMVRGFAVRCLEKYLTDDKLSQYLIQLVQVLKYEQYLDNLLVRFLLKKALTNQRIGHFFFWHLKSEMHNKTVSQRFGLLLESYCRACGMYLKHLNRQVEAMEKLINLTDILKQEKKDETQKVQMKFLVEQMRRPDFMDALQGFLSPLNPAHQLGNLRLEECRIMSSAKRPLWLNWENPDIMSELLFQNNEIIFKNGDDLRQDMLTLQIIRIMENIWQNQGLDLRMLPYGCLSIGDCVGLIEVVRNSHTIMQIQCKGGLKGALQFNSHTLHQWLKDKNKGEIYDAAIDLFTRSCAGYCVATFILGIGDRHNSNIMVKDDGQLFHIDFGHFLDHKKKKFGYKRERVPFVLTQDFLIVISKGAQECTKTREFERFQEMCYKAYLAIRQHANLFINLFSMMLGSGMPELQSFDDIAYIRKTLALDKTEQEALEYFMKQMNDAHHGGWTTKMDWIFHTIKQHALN

[12] = Toxicity in BALB/c mouse xenografted with human MCF7/ADM cells assessed as change in creatinine level at 50 mg/kg, ip; type: organism-based; settings: in vivo
[13] = tested on: MCF7/ADM; test: Antitumor activity against human MCF7/ADM cells xenografted in BALB/c mouse assessed as increase in caspase-12 expression in tumor at 50 mg/kg, ip by Western blot analysis; type: functional, organism-based
[14] = tested on: MCF7/ADM; test: Antitumor activity against human MCF7/ADM cells xenografted in BALB/c mouse assessed as increase in PERK expression in tumor at 50 mg/kg, ip by Western blot analysis; type: functional, organism-based
[15] = tested on: MCF7/ADM; test: Induction of apoptosis in human MCF7/ADM cells assessed as increase in cleaved caspase-3 expression at 12.5 uM incubated for 24 hrs by Western blot analysis; type: functional, cell-based
[16] = molecular target: T1, von Hippel-Lindau disease tumor suppressor/Phosphatidylinositol 4,5-bisphosphate 3-kinase catalytic subunit beta isoform; test: PROTAC activity at PI3K-p110beta/VHL in human MCF7/ADM cells assessed as reduction in PI3K-p110beta level at 25 uM incubated for 24 hrs by Western blot analysis relative to control; type: cell-based; set-up: scale not given: the % may be the effect or the level left
Target sequence in this assay (P40337 whole entry, looked up, canonical isoform): as the sequence (P40337 whole entry, looked up, canonical isoform) above
Target sequence in this assay (P42338 whole entry, looked up, canonical isoform): as the sequence (P42338 whole entry, looked up, canonical isoform) above

[17] = Toxicity in BALB/c mouse xenografted with human MCF7/ADM cells assessed as change in platelet count at 50 mg/kg, ip; type: organism-based; settings: in vivo
[18] = molecular target: T2, von Hippel-Lindau disease tumor suppressor/Phosphatidylinositol 4,5-bisphosphate 3-kinase catalytic subunit alpha isoform; test: PROTAC activity at PI3K-p110alpha/VHL in human MCF7/ADM cells assessed as reduction in PI3K-p110alpha level incubated for 24 hrs by Western blot analysis; type: cell-based; settings: dose 0.04-50 µM
[19] = molecular target: T1, von Hippel-Lindau disease tumor suppressor/Phosphatidylinositol 4,5-bisphosphate 3-kinase catalytic subunit beta isoform; test: PROTAC activity at PI3K-p110beta/VHL in human MCF7/ADM cells assessed as induction of PI3K-p110beta degradation at 25 uM measured for 24 hrs in presence of TGX221 by Western blot analysis; type: cell-based
Target sequence in this assay (P40337 whole entry, looked up, canonical isoform): as the sequence (P40337 whole entry, looked up, canonical isoform) above
Target sequence in this assay (P42338 whole entry, looked up, canonical isoform): as the sequence (P42338 whole entry, looked up, canonical isoform) above

[20] = molecular target: T2, von Hippel-Lindau disease tumor suppressor/Phosphatidylinositol 4,5-bisphosphate 3-kinase catalytic subunit alpha isoform; test: PROTAC activity at PI3K-p110alpha/VHL in human A549/DDP cells assessed as induction of PI3K-p110alpha degradation at 0.04 to 50 uM by Western blot analysis; type: cell-based; settings: dose 0.04-50 µM, time 24.0 hrs
[21] = tested on: A549/CDDP; test: Upregulation of CHOP expression in human A549/DDP cells at 0.25 to 25 uM incubated for 24 hrs by Western blot analysis; type: functional, cell-based; settings: dose 0.25-25 µM
[22] = tested on: A549/CDDP; test: Induction of apoptosis in human A549/DDP cells assessed as increase in caspase-9 expression at 12.5 uM incubated for 24 hrs by Western blot analysis; type: functional, cell-based
[23] = tested on: A549/CDDP; test: Antitumor activity against human A549/DDP cells assessed as cell viability incubated for 24 hrs by MTT assay; type: functional, cell-based
[24] = molecular target: T1, von Hippel-Lindau disease tumor suppressor/Phosphatidylinositol 4,5-bisphosphate 3-kinase catalytic subunit beta isoform; test: PROTAC activity at PI3K-p110beta/VHL in human MCF7/ADM cells assessed as reduction in PI3K-p110beta level incubated for 12 to 36 hrs by Western blot analysis; type: cell-based; settings: time 12-36 hrs
[25] = tested on: MCF7/ADM; test: Antitumor activity against human MCF7/ADM cells xenografted in BALB/c mouse assessed as increase in cleaved caspase-9 expression in tumor at 50 mg/kg, ip by Western blot analysis; type: functional, organism-based
[26] = tested on: MCF7/ADM; test: Antitumor activity against human MCF7/ADM cells xenografted in BALB/c mouse assessed as increase in GRP78 expression in tumor at 50 mg/kg, ip by Western blot analysis; type: functional, organism-based
[27] = molecular target: T1, von Hippel-Lindau disease tumor suppressor/Phosphatidylinositol 4,5-bisphosphate 3-kinase catalytic subunit beta isoform; test: PROTAC activity at PI3K-p110beta/VHL in human A549/DDP cells assessed as induction of PI3K-p110beta degradation at 25 uM measured for 24 hrs in presence of MG132 by Western blot analysis; type: cell-based
[28] = tested on: MCF7/ADM; test: Antitumor activity against human MCF7/ADM cells xenografted in BALB/c mouse assessed as increase in bax expression in tumor at 50 mg/kg, ip by Western blot analysis; type: functional, organism-based
[29] = molecular target: T1, von Hippel-Lindau disease tumor suppressor/Phosphatidylinositol 4,5-bisphosphate 3-kinase catalytic subunit beta isoform; test: PROTAC activity at PI3K-p110beta/VHL in human A549/DDP cells assessed as induction of PI3K-p110beta degradation at 25 uM measured for 24 hrs in presence of VHL ligand by Western blot analysis; type: cell-based
[30] = tested on: A549/CDDP; test: Cytotoxicity against human A549/DDP cells at 100 uM incubated for 24 hrs; type: functional, cell-based
[31] = molecular target: T1, von Hippel-Lindau disease tumor suppressor/Phosphatidylinositol 4,5-bisphosphate 3-kinase catalytic subunit beta isoform; test: PROTAC activity at PI3K-p110beta/VHL in human MCF7/ADM cells assessed as induction of PI3K-p110beta degradation incubated for 24 hrs by Western blot analysis; type: cell-based
[32] = molecular target: T1, von Hippel-Lindau disease tumor suppressor/Phosphatidylinositol 4,5-bisphosphate 3-kinase catalytic subunit beta isoform; test: PROTAC activity at PI3K-p110beta/VHL in human A549/DDP cells assessed as reduction in PI3K-p110beta level at 25 uM incubated for 24 hrs by Western blot analysis relative to control; type: cell-based; set-up: scale not given: the % may be the effect or the level left

| Activity [3] | Activity [5] | inhibition (INH) [6] | Activity [19] | Activity [20] | IC50 [23] [µM] | Activity [24] | Activity [27] | SMILES | Activity [1] | Activity [7] | Activity [8] | Activity [12] | Activity [13] | Activity [14] | Activity [15] | Activity [17] | Activity [21] | Activity [22] | Activity [25] | Activity [26] | also measured |
| --- | --- | --- | --- | --- | --- | --- | --- | --- | --- | --- | --- | --- | --- | --- | --- | --- | --- | --- | --- | --- | --- |
| inactive | Active | Active | inactive | Time-dependent-effect | 43.1 | Active | Active | Cc1cc(C(C)Nc2ccccc2C(=O)NCCOCCOCCC(=O)N[C@H](C(=O)N2C[C@H](O)C[C@H]2C(=O)NCc2ccc(-c3scnc3C)cc2)C(C)(C)C)c2nc(N3CCOCC3)cc(=O)n2c1 (some centres undefined) | Active | Active | Active | Non-toxic | Active | Active | Active | Non-toxic | Active | Active | Active | Active | Activity [2]: Dose-dependent-effect; Activity [4]: 6.88%; Activity [9]: Active; Activity [10]: 21.59%; Activity [11]: Dose-dependent-effect; Activity [16]: 75%; Activity [18]: Dose-dependent-effect; Activity [28]: Active; Activity [29]: Active |
| inactive | Active | Active | inactive | Time-dependent-effect | 39.2 | Active | Active | Cc1cc(C(C)Nc2ccccc2C(=O)NCCCCCCC(=O)N[C@H](C(=O)N2C[C@H](O)C[C@H]2C(=O)NCc2ccc(-c3scnc3C)cc2)C(C)(C)C)c2nc(N3CCOCC3)cc(=O)n2c1 (some centres undefined) | Active | Active | Active | Non-toxic | Active | Active | Active | Non-toxic | Active | Active | Active | Active | Activity [30]: Active; DC50 [31]: 1.26 µM; Activity [32]: 88%; Activity [28]: Active; Activity [29]: Active |
